{"source": "patent US20160136108A1", "about": "“HYDROXYTYROSOL COMPOSITIONS FOR TREATMENT OF CARTILAGE INJURIES IN JOINTS” (DSM IP ASSETS B.V., priority 2007, published 2016)", "assay_type_in_all_cases": "cell-based", "key": {"human aggrecan": {"test_system": "human aggrecan", "test": "Anabolic gene expression by quantitative real-time PCR in normal human primary chondrocytes: aggrecan", "experimental": "(§1) […] These primary chondrocytes were passaged in vitro not more than 4 times, before being used for experiments. Cells were cultured in chondrocyte differentiation medium (Cambrex, #CC-3225) without or with substances for 4 hours. Total RNA was extracted from cultured cells and reverse-transcribed as described by Richard et al. Mol. Nutr. Food Res. 49, 431-442, 2005. Expression levels of distinct genes were determined by quantitative real-time PCR as detailed in Richard et al. Mol. Nutr. Food Res. 49, 431-442, 2005."}, "human COL2A1": {"test_system": "human COL2A1", "test": "Anabolic gene expression by quantitative real-time PCR in normal human primary chondrocytes: COL2A1", "experimental": "as §1"}, "human SOX-5": {"test_system": "human SOX-5", "test": "Anabolic gene expression by quantitative real-time PCR in normal human primary chondrocytes: SOX-5", "conditions": "normal human primary chondrocytes (HNAC-kn); 4 hours", "experimental": "as §1"}, "human SOX-6": {"test_system": "human SOX-6", "test": "Anabolic gene expression by quantitative real-time PCR in normal human primary chondrocytes: SOX-6", "conditions": "normal human primary chondrocytes (HNAC-kn); 4 hours", "experimental": "as §1"}, "Human IL-R antagonist": {"test_system": "Human IL-R antagonist", "test": "Anti-catabolic gene expression by quantitative real-time PCR in normal human primary chondrocytes: IL-R antagonist", "conditions": "normal human primary chondrocytes (HNAC-kn); 4 hours", "experimental": "as §1"}, "[1]": {"conditions": "12.5 microM OH-Tyrosol, normal human primary chondrocytes (HNAC-kn), 4 hours"}, "[2]": {"conditions": "in words, normal human primary chondrocytes"}}}
{"smiles": "OCCc1ccc(O)c(O)c1", "note": "[OH-Tyrosol, 4-(2-hydroxylethyl)-1,2-benzenediol]", "values": [{"measurement": "level of gene expression, human aggrecan", "setting": "human aggrecan; [1]", "value": "125 % of control-treated cells"}, {"measurement": "effect of compounds on gene expression, human aggrecan", "setting": "human aggrecan; [2]", "value": "substantially increased"}, {"measurement": "level of gene expression, human COL2A1", "setting": "human COL2A1; [1]", "value": "247 % of control-treated cells"}, {"measurement": "effect of compounds on gene expression, human COL2A1 (collagen II)", "setting": "human COL2A1; [2]", "value": "substantially increased"}, {"measurement": "level of gene expression, human SOX-5", "setting": "human SOX-5", "value": "130 % of control-treated cells"}, {"measurement": "level of gene expression, human SOX-6", "setting": "human SOX-6", "value": "127 % of control-treated cells"}, {"measurement": "level of gene expression, Human IL-R antagonist", "setting": "Human IL-R antagonist", "value": "113 % of control-treated cells"}]}
